US12629374B2, “Antimalarial agents” (Merck Sharp & Dohme LLC, priority 2020, dated 2026)
Like-named read-outs stand apart in the source and are kept apart here.

System: ring stage parasites
Assay: Parasite growth potency assay, 72 hours, LDH readout
Type: cell-based
Settings: parasite growth measured by LDH assay after 72 hours at 37° C., 0.7% rings, 2% haematocrit, read-out: EC50
Summary of the method: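 Parasite growth was quantified by LDH assay after a −80 °C freeze-thaw. Before that, compound was incubated for 72 h at 37 °C under humidified gas with ring-stage cultures adjusted to 0.7% parasitemia and 2% haematocrit in serum- and albumax-supplemented RPMI-Hepes.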

CC(C)[C@]1(C)CC(=O)N(Cc2cc(F)cc(C(=O)N[C@@H]3c4ccccc4C[C@H]3O)c2)C(=N)N1 [Example 30, [(4S)-1-[[3-fluoro-5-[[(1R,2R)-2-hydroxyindan-1-yl]carbamoyl]phenyl]methyl]-4-isopropyl-4-methyl-6-oxo-hexahydropyrimidin-2-ylidene]ammonium; 2,2,2-trifluoroacetate]
EC50 (72 h): 3.1 nM

CCC1(CC)CC(=O)N([C@H](C)c2cccc(C(=O)N[C@H]3CCOc4ccccc43)c2)C(=N)N1 [Example 31, [1-[1-[3-[[(4S)-chroman-4-yl]carbamoyl]phenyl]ethyl]-4,4-diethyl-6-oxo-hexahydropyrimidin-2-ylidene]ammonium; 2,2,2-trifluoroacetate]
EC50 (72 h): 0.8 nM

CCC1(CC)CC(=O)N([C@@H](c2cccc(C(=O)N[C@H]3CCOc4ccccc43)c2)C23CC(C2)C3)C(=N)N1 [Example 32, [1-[1-bicyclo[1.1.1]pentanyl-[3-[[(4S)-chroman-4-yl]carbamoyl]phenyl]methyl]-4,4-diethyl-6-oxo-hexahydropyrimidin-2-ylidene]ammonium; 2,2,2-trifluoroacetate]
EC50 (72 h): 2 nM

CCC1(CC)CC(=O)N([C@H](C)c2cccc(C(=O)N[C@@H]3c4ccccc4C[C@H]3O)c2)C(=N)N1 [Example 33, [4,4-diethyl-1-[1-[3-[[(1R,2R)-2-hydroxyindan-1-yl]carbamoyl]phenyl]ethyl]-6-oxo-hexahydropyrimidin-2-ylidene]ammonium; 2,2,2-trifluoroacetate]
EC50 (72 h): 2.8 nM

CCC1(CC)CC(=O)N([C@@H](c2cccc(C(=O)N[C@@H]3c4ccccc4C[C@H]3O)c2)C23CC(C2)C3)C(=N)N1 [Example 34, [1-[1-bicyclo[1.1.1]pentanyl-[3-[[(1R,2R)-2-hydroxyindan-1-yl]carbamoyl]phenyl]methyl]-4,4-diethyl-6-oxo-hexahydropyrimidin-2-ylidene]ammonium; 2,2,2-trifluoroacetate]
EC50 (72 h): 0.5 nM

CCC1(CC)CC(=O)N(Cc2cc(F)cc(C(=O)N[C@@H]3c4ccccc4C[C@H]3O)c2)C(=N)N1 [Example 35, [4,4-diethyl-1-[[3-fluoro-5-[[(1R,2R)-2-hydroxyindan-1-yl]carbamoyl]phenyl]methyl]-6-oxo-hexahydropyrimidin-2-ylidene]ammonium; 2,2,2-trifluoroacetate]
EC50 (72 h): 2 nM

CCC1(CC)CC(=O)N(Cc2ccnc(C(=O)N[C@@H]3c4ccccc4C[C@H]3O)c2)C(=N)N1 [Example 36, [4,4-diethyl-1-[[2-[[(1R,2R)-2-hydroxyindan-1-yl]carbamoyl]-4-pyridyl]methyl]-6-oxo-hexahydropyrimidin-2-ylidene]ammonium; 2,2,2-trifluoroacetate]
EC50 (72 h): 16.8 nM

CCC1(CC)CC(=O)N(Cc2cccc(C(=O)N[C@@H]3c4ccccc4C[C@H]3O)n2)C(=N)N1 [Example 37, [4,4-diethyl-1-[[6-[[(1R,2R)-2-hydroxyindan-1-yl]carbamoyl]-2-pyridyl]methyl]-6-oxo-hexahydropyrimidin-2-ylidene]ammonium; 2,2,2-trifluoroacetate]
EC50 (72 h): 14.4 nM

CCC1(CC)CC(=O)N(Cc2cc(C(=O)N[C@@H]3c4ccccc4C[C@H]3O)ccn2)C(=N)N1 [Example 38, [4,4-diethyl-1-[[4-[[(1R,2R)-2-hydroxyindan-1-yl]carbamoyl]-2-pyridyl]methyl]-6-oxo-hexahydropyrimidin-2-ylidene]ammonium; 2,2,2-trifluoroacetate]
EC50 (72 h): 31.3 nM

CCC1(CC)CC(=O)N(Cc2cncc(C(=O)N[C@@H]3c4ccccc4C[C@H]3O)c2)C(=N)N1 [Example 39, [4,4-diethyl-1-[[5-[[(1R,2R)-2-hydroxyindan-1-yl]carbamoyl]pyridin-1-ium-3-yl]methyl]-6-oxo-hexahydropyrimidin-2-ylidene]ammonium; 2,2,2-trifluoroacetate]
EC50 (72 h): 30.4 nM

CCC1(CC)CC(=O)N([C@H](Cc2ccccc2)c2cccc(C(=O)N[C@H]3CCOc4ccccc43)c2)C(=N)N1 [Example 40, [1-[1-[3-[[(4S)-chroman-4-yl]carbamoyl]phenyl]-2-phenyl-ethyl]-4,4-diethyl-6-oxo-hexahydropyrimidin-2-ylidene]ammonium; 2,2,2-trifluoroacetate]
EC50 (72 h): 9.7 nM

C=CC[C@H](c1cccc(C(=O)N[C@H]2CCOc3ccccc32)c1)N1C(=N)NC(CC)(CC)CC1=O [Example 41, [1-[1-[3-[[(4S)-chroman-4-yl]carbamoyl]phenyl]but-3-enyl]-4,4-diethyl-6-oxo-hexahydropyrimidin-2-ylidene]ammonium; 2,2,2-trifluoroacetate]
EC50 (72 h): 0.9 nM

CCC1(CC)NC(=N)N(Cc2cc(F)cc(C(=O)N[C@H]3CCOc4ccccc43)c2)C(=O)C1C (stereo partly drawn) [Example 42, [1-[[3-[[(4S)-chroman-4-yl]carbamoyl]-5-fluoro-phenyl]methyl]-4,4-diethyl-5-methyl-6-oxo-hexahydropyrimidin-2-ylidene]ammonium; 2,2,2-trifluoroacetate]
EC50 (72 h): 10.3 nM

CCC1(CC)NC(=N)N(Cc2cc(F)cc(C(=O)N[C@H]3CCOc4ccccc43)c2)C(=O)C1C (stereo partly drawn) [Example 43, [1-[[3-[[(4S)-chroman-4-yl]carbamoyl]-5-fluoro-phenyl]methyl]-4,4-diethyl-5-methyl-6-oxo-hexahydropyrimidin-2-ylidene]ammonium; 2,2,2-trifluoroacetate]
EC50 (trifluoroacetate): 7.2 nM

CC[C@]1(C(C)C)CC(=O)N(Cc2cc(F)cc(C(=O)N[C@H]3CCOc4ccccc43)c2)C(=N)N1 [Example 44, [(4R)-1-[[3-[[(4S)-chroman-4-yl]carbamoyl]-5-fluoro-phenyl]methyl]-4-ethyl-4-isopropyl-6-oxo-hexahydropyrimidin-2-ylidene]ammonium; 2,2,2-trifluoroacetate]
EC50 (72 h): 2.6 nM

CC[C@]1(C(C)C)CC(=O)N(Cc2cc(F)cc(C(=O)N[C@@H]3c4ccccc4C[C@H]3O)c2)C(=N)N1 [Example 45, [(4R)-4-ethyl-1-[[3-fluoro-5-[[(1R,2R)-2-hydroxyindan-1-yl]carbamoyl]phenyl]methyl]-4-isopropyl-6-oxo-hexahydropyrimidin-2-ylidene]ammonium; 2,2,2-trifluoroacetate]
EC50 (72 h): 2.6 nM

CC[C@]1(CC(C)C)CC(=O)N(Cc2cc(F)cc(C(=O)N[C@H]3CCOc4ccccc43)c2)C(=N)N1 [Example 46, [(4S)-1-[[3-[[(4S)-chroman-4-yl]carbamoyl]-5-fluoro-phenyl]methyl]-4-ethyl-4-isobutyl-6-oxo-hexahydropyrimidin-2-ylidene]ammonium; 2,2,2-trifluoroacetate]
EC50 (72 h): 10.4 nM

CC[C@]1(CC(C)C)CC(=O)N(Cc2cc(F)cc(C(=O)N[C@@H]3c4ccccc4C[C@H]3O)c2)C(=N)N1 [Example 47, [(4S)-4-ethyl-1-[[3-fluoro-5-[[(1R,2R)-2-hydroxyindan-1-yl]carbamoyl]phenyl]methyl]-4-isobutyl-6-oxo-hexahydropyrimidin-2-ylidene]ammonium; 2,2,2-trifluoroacetate]
EC50 (72 h): 6.5 nM

CCC1(CC)NC(=N)N(Cc2cc(F)cc(C(=O)N[C@@H]3c4ccccc4C[C@H]3O)c2)C(=O)C1C (stereo partly drawn) [Example 48, [4,4-diethyl-1-[[3-fluoro-5-[[(1R,2R)-2-hydroxyindan-1-yl]carbamoyl]phenyl]methyl]-5-methyl-6-oxo-hexahydropyrimidin-2-ylidene]ammonium; 2,2,2-trifluoroacetate]
EC50 (72 h): 5.2 nM

CCC[C@H](c1cc(C(=O)N[C@H]2CCOc3ccccc32)ccn1)N1C(=N)NC(CC)(CC)CC1=O [Example 49A, [1-[1-[4-[[(4S)-chroman-4-yl]carbamoyl]pyridin-1-ium-2-yl]butyl]-4,4-diethyl-6-oxo-hexahydropyrimidin-2-ylidene]ammonium; 2,2,2-trifluoroacetate]
EC50 (72 h): 0.7 nM

CCC[C@@H](c1cc(C(=O)N[C@H]2CCOc3ccccc32)ccn1)N1C(=N)NC(CC)(CC)CC1=O [Example 49B, [1-[1-[4-[[(4S)-chroman-4-yl]carbamoyl]pyridin-1-ium-2-yl]butyl]-4,4-diethyl-6-oxo-hexahydropyrimidin-2-ylidene]ammonium; 2,2,2-trifluoroacetate]
EC50 (72 h): 85 nM

CCC[C@H](c1cncc(C(=O)N[C@H]2CCOc3ccccc32)c1)N1C(=N)NC(CC)(CC)CC1=O [Example 50, [1-[1-[5-[[(4S)-chroman-4-yl]carbamoyl]pyridin-1-ium-3-yl]butyl]-4,4-diethyl-6-oxo-hexahydropyrimidin-2-ylidene]ammonium; 2,2,2-trifluoroacetate]
EC50 (72 h): 0.4 nM

CC[C@]1(c2ccccc2)CC(=O)N(Cc2cc(F)cc(C(=O)N[C@H]3CCOc4ccccc43)c2)C(=N)N1 [Example 52, [(4R)-1-[[3-[[(4S)-chroman-4-yl]carbamoyl]-5-fluoro-phenyl]methyl]-4-ethyl-6-oxo-4-phenyl-hexahydropyrimidin-2-ylidene]ammonium; 2,2,2-trifluoroacetate]
EC50 (72 h): 20.1 nM

CC[C@]1(c2ccccc2)CC(=O)N(Cc2cc(F)cc(C(=O)N[C@@H]3c4ccccc4C[C@H]3O)c2)C(=N)N1 [Example 53, [(4R)-4-ethyl-1-[[3-fluoro-5-[[(1R,2R)-2-hydroxyindan-1-yl]carbamoyl]phenyl]methyl]-6-oxo-4-phenyl-hexahydropyrimidin-2-ylidene]ammonium; 2,2,2-trifluoroacetate]
EC50 (72 h): 25.3 nM

CCC1(CC)CC(=O)N([C@H](CCN2CCOCC2)c2cccc(C(=O)N[C@H]3CCOc4ccccc43)c2)C(=N)N1 [Example 54, [1-[1-[3-[[(4S)-chroman-4-yl]carbamoyl]phenyl]-3-morpholin-4-ium-4-yl-propyl]-4,4-diethyl-6-oxo-hexahydropyrimidin-2-ylidene]ammonium; 2,2,2-trifluoroacetate]
EC50 (72 h): 5.6 nM

CCC1(CC)CC(=O)N([C@H](CCN2CCOCC2)c2cccc(C(=O)N[C@@H]3c4ccccc4C[C@H]3O)c2)C(=N)N1 [Example 55, [4,4-diethyl-1-[1-[3-[[(1R,2R)-2-hydroxyindan-1-yl]carbamoyl]phenyl]-3-morpholin-4-ium-4-yl-propyl]-6-oxo-hexahydropyrimidin-2-ylidene]ammonium; 2,2,2-trifluoroacetate]
EC50 (72 h): 9.8 nM
